Like-named read-outs stand apart in the source and are kept apart here.
Assay: TRM-201-PK-102 single-dose four-period crossover pharmacokinetic study, fasted healthy subjects
Assay type: in vivo, human
Settings: human, plasma, oral; for Cmax / AUC(0-inf): 102 study
Method: A Single-Dose, Open-Label, Phase 1, Four-Period Crossover Pharmacokinetic Study of TRM-201 (Rofecoxib) 12.5 mg, 17.5 mg, 20 mg and 25 mg Administered to Healthy Subjects in a Fasting State, with Comparison to Historical Pharmacokinetic Parameters of Previously Marketed Rofecoxib (“TRM-201-PK-102” or “102 PK Study”)
This was a single-center, open-label four-period crossover PK study of TRM-201. The study included 24 subjects who received TRM-201 as a single dose of 12.5 mg, 17.5 mg, 20 mg and 25 mg to assess the PK of TRM-201 in healthy volunteers under fasted conditions. Subjects were randomized to one of four treatment sequences. The PK data from the current study along with the data from the TRM-201-PK-101 study (Example 4) was used to compare to historical pharmacokinetic parameters of previously marketed rofecoxib, all in a fasted state.
In each of the four dosing periods, subjects fasted overnight for at least 10 hours before study drug dosing. While fasting, subjects had nothing to eat and only water to drink. Water was permitted as desired, except for the period between 1 hour before and 1 hour after study drug dosing (excepting as permitted for dosing). After the 2-hour PK blood sample, subjects were allowed one 250-mL cup of clear apple juice. After the 4-hour PK blood sample, subjects were served a light lunch. Following the light lunch, subjects received standardized meals according to the clinic's standard procedures that were scheduled at consistent times and at least 15 minutes before or 15 minutes after PK sampling time points. Blood was withdrawn for PK analysis at predefined time points. For each dosing period the last time point was 120 hours after dosing with study drug (Day 6). After the 120 hour PK sample, the EOP procedures was completed, subjects remained in-clinic for the in-between dose period day (Days 7, 14, and 21) and began the next dosing period starting with an overnight fast for at least 10 hours on Day −1 of the subsequent dosing period. Pharmacokinetic and safety endpoints were evaluated.
The study drug, TRM-201, was an immediate-release tablet that contained 12.5 mg rofecoxib, 17.5 mg rofecoxib, 20 mg rofecoxib or 25 mg rofecoxib. The 7.25-mm diameter tablets were off-white, round, and uncoated with no markings. TRM-201 tablets were for oral administration.
For each sample, approximately 3 mL of blood were drawn. The samples were obtained by a straight stick or via an in-dwelling intravenous (IV) catheter in a forearm vein. Additional details for the collection, processing, storage, and shipping of PK samples were provided in the study manual.
Pharmacokinetic samples will be analyzed using a validated assay for rofecoxib in human plasma. Assay results and validation details will be provided in a separate bioanalytical report. The following PK parameters for rofecoxib will be calculated as primary endpoints using standard noncompartmental methods: AUC0-∞ and Cmax. Secondary endpoints include Tmax, and t1/2. Additional PK parameters (e.g., CL/F, and Vd/F) will also be calculated using standard noncompartmental methods.
Individual plasma concentrations for rofecoxib and PK sampling time deviation data will be presented in a data listing. Plasma concentration data will be summarized by time point using the following descriptive statistics: number of subjects, arithmetic mean, SD, coefficient of variation (CV), geometric mean, natural-log-scale SD, geometric CV, median, minimum, and maximum. Individual plasma concentration versus actual time profiles were presented on both linear and semilogarithmic scales. Additionally, arithmetic mean concentration versus scheduled time profiles were presented on linear scales and geometric means on semilogarithmic scales.
The PK parameters of rofecoxib were analyzed based on the actual sampling times. […]

[1] = 25 mg, read-out: arithmetic mean plasma concentration
[2] = 25 mg, read-out: geometric mean plasma concentration

CS(=O)(=O)c1ccc(C2=C(c3ccccc3)C(=O)OC2)cc1 [TRM-201, 4-[4-(methylsulfonyl)phenyl]-3-phenyl-2(5H)-furanone]
Cmax (25 mg, 41-52 years, read-out: arithmetic mean Cmax): 326 ng/mL | AUC(0-inf) (25 mg, 41-52 years, read-out: geometric mean AUC0-∞): 4580 ng·h/mL | Cmax (25 mg, 41-52 years, read-out: geometric mean Cmax): 321 ng/mL | AUC(0-inf) (25 mg, 53-60 years, read-out: arithmetic mean AUC0-∞): 4940 ng·h/mL | Cmax (25 mg, 53-60 years, read-out: arithmetic mean Cmax): 354 ng/mL | AUC(0-inf) (25 mg, 53-60 years, read-out: geometric mean AUC0-∞): 4880 ng·h/mL | Cmax (25 mg, 53-60 years, read-out: geometric mean Cmax): 347 ng/mL | AUC(0-inf) (25 mg, Black or African-American subjects, read-out: arithmetic mean AUC0-∞): 3990 ng·h/mL | Cmax (25 mg, Black or African-American subjects, read-out: arithmetic mean Cmax): 340 ng/mL | AUC(0-inf) (25 mg, Black or African-American subjects, read-out: geometric mean AUC0-∞): 3940 ng·h/mL | Cmax (25 mg, Black or African-American subjects, read-out: geometric mean Cmax): 339 ng/mL | AUC(0-inf) (25 mg, Hispanic or Latino subjects, read-out: arithmetic mean AUC0-∞): 4980 ng·h/mL | Cmax (25 mg, Hispanic or Latino subjects, read-out: arithmetic mean Cmax): 358 ng/mL | AUC(0-inf) (25 mg, Hispanic or Latino subjects, read-out: geometric mean AUC0-∞): 4870 ng·h/mL | Cmax (25 mg, Hispanic or Latino subjects, read-out: geometric mean Cmax): 351 ng/mL | AUC(0-inf) (25 mg, White subjects, read-out: arithmetic mean AUC0-∞): 4800 ng·h/mL | Cmax (25 mg, White subjects, read-out: arithmetic mean Cmax): 351 ng/mL | AUC(0-inf) (25 mg, White subjects, read-out: geometric mean AUC0-∞): 4650 ng·h/mL | Cmax (25 mg, White subjects, read-out: geometric mean Cmax): 341 ng/mL | AUC(0-inf) (25 mg, body weight 47-70 kg, read-out: arithmetic mean AUC0-∞): 4450 ng·h/mL | Cmax (25 mg, body weight 47-70 kg, read-out: arithmetic mean Cmax): 385 ng/mL | AUC(0-inf) (25 mg, body weight 47-70 kg, read-out: geometric mean AUC0-∞): 4310 ng·h/mL | Cmax (25 mg, body weight 47-70 kg, read-out: geometric mean Cmax): 376 ng/mL | AUC(0-inf) (25 mg, body weight 70.1-77 kg, read-out: arithmetic mean AUC0-∞): 5470 ng·h/mL | Cmax (25 mg, body weight 70.1-77 kg, read-out: arithmetic mean Cmax): 371 ng/mL | AUC(0-inf) (25 mg, body weight 70.1-77 kg, read-out: geometric mean AUC0-∞): 5410 ng·h/mL | Cmax (25 mg, body weight 70.1-77 kg, read-out: geometric mean Cmax): 368 ng/mL | AUC(0-inf) (25 mg, body weight 77.1-90 kg, read-out: arithmetic mean AUC0-∞): 4130 ng·h/mL | Cmax (25 mg, body weight 77.1-90 kg, read-out: arithmetic mean Cmax): 299 ng/mL | AUC(0-inf) (25 mg, body weight 77.1-90 kg, read-out: geometric mean AUC0-∞): 4040 ng·h/mL | Cmax (25 mg, body weight 77.1-90 kg, read-out: geometric mean Cmax): 294 ng/mL | AUC(0-inf) (25 mg, non-Hispanic or non-Latino subjects, read-out: arithmetic mean AUC0-∞): 4280 ng·h/mL | Cmax (25 mg, non-Hispanic or non-Latino subjects, read-out: arithmetic mean Cmax): 340 ng/mL | AUC(0-inf) (25 mg, non-Hispanic or non-Latino subjects, read-out: geometric mean AUC0-∞): 4150 ng·h/mL | Cmax (25 mg, non-Hispanic or non-Latino subjects, read-out: geometric mean Cmax): 331 ng/mL | concentration at 15 minutes [1]: 5.63 ng/mL | concentration at 15 minutes [2]: 1.37 ng/mL | concentration at 45 minutes [1]: 159 ng/mL | concentration at 45 minutes [2]: 97.6 ng/mL | AUC(0-inf) (male, 12.5 mg, males, read-out: arithmetic mean AUC0-∞): 1750 ng·h/mL | Cmax (male, 12.5 mg, males, read-out: arithmetic mean Cmax): 132 ng/mL | AUC(0-inf) (male, 12.5 mg, males, read-out: geometric mean AUC0-∞): 1580 ng·h/mL | Cmax (male, 12.5 mg, males, read-out: geometric mean Cmax): 127 ng/mL | AUC(0-inf) (male, 17.5 mg, males, read-out: arithmetic mean AUC0-∞): 2860 ng·h/mL | Cmax (male, 17.5 mg, males, read-out: arithmetic mean Cmax): 201 ng/mL | AUC(0-inf) (male, 17.5 mg, males, read-out: geometric mean AUC0-∞): 2710 ng·h/mL | Cmax (male, 17.5 mg, males, read-out: geometric mean Cmax): 196 ng/mL | AUC(0-inf) (male, 20 mg, males, read-out: arithmetic mean AUC0-∞): 3130 ng·h/mL | Cmax (male, 20 mg, males, read-out: arithmetic mean Cmax): 234 ng/mL | AUC(0-inf) (male, 20 mg, males, read-out: geometric mean AUC0-∞): 2940 ng·h/mL | Cmax (male, 20 mg, males, read-out: geometric mean Cmax): 224 ng/mL | AUC(0-inf) (male, 25 mg, males, read-out: arithmetic mean AUC0-∞): 4080 ng·h/mL | Cmax (male, 25 mg, males, read-out: arithmetic mean Cmax): 302 ng/mL | AUC(0-inf) (male, 25 mg, males, read-out: geometric mean AUC0-∞): 3940 ng·h/mL | Cmax (male, 25 mg, males, read-out: geometric mean Cmax): 298 ng/mL | AUC(0-inf) (male, 25 mg, printed 'For males' (second statement, after the females' arithmetic means), read-out: geometric mean AUC0-∞): 5020 ng·h/mL | Cmax (male, 25 mg, printed 'For males' (second statement, after the females' arithmetic means), read-out: geometric mean Cmax): 382 ng/mL
